{
  "source": "patent US20030045485A1",
  "about": "“P53-MEDIATED APOPTOSIS FOR THE THERAPEUTIC TREATMENT OF DISEASES” (priority 1993, published 2003)",
  "key": {"[1]": {"test_system": "c-myc transfected DP16-1 cells", "test": "DMSO-induced differentiation of c-myc transfected DP16-1 cells, benzidine staining", "format": "cell-based, mouse", "conditions": "two days of exposure to medium containing DMSO", "text": "(§1) MEL cell lines invariability contain mutations of the p53 tumor suppressor gene and express either negligible or mutant p53 protein. During MEL differentiation there is a biphasic decline in expression of the c-myc oncogene although enforced expression of c-myc blocks this differentiation. To determine the relationship between mutant p53 and c-myc in cell differentiation, DP16-1 cells (which have deleted both p53 alleles) were transfected with an amplifiable plasmid vector containing a full-length mouse c-myc cDNA with or without plasmid vector containing a mutant p53 cDNA (p53^pro193). The exogenous c-myc cDNA is transcribed in MEL cells and results in increased expression of c-myc mRNA and protein during DMSO-induced differentiation. Extent of differentiation was monitored by benzidine staining (FIGS. 17A and 17B). When MEL cells are exposed to DMSO, differentiation normally occurs over a five day period. In contrast to the parental DP16-1 cells or DP16-1 cells transfected with pSV2LZquad, c-myc transfected DP16-1 cells or underwent accelerated differentiation. […] Furthermore, c-myc transfected DP16-1 cells stopped growing and eventually lost viability when grown in medium containing 1.6% DMSO. Coincident expression of p53^pro193 with c-myc abolished the accelerated DMSO-induced differentiation seen in cells which expressed c-myc alone."}, "[2]": {"test_system": "p53^tsneo transfected DP16-1 cells", "test": "Viability of p53^tsneo transfectants in media containing 1.6% DMSO", "format": "cell-based, mouse", "conditions": "37.5° C., logarithmically growing transfectants", "protocol": "DP16-1 MEL cells were grown in Dulbecco modified minimal essential medium (DMEM) supplemented with 10% calf serum, 2 mM glutamine, 100 U of penicillin per ml, and 100 μg of […] per ml. DNA transfections were performed by electroporation (Prochownik et al., supra). Transfection mixes consisted of 1×10^7 cells in 400 μl transfection buffer (272 mM sucrose, 7 mM phosphate (pH 7.4), 1 mM MgCl2) with either 10 μg p53^tsneo, or 10 μg pSV-2neo, linearized with Bam HI. Transfected cells were selected in media containing 1 mg/ml geneticin (G418; GIBCO). Single-cell clones were isolated by limiting cell dilution in 96-well microtiter plates. To characterize the consequences of enforced expression of p53 on differentiation, logarithmically growing transfectants were exposed to media containing 1.6% dimethyl sulfoxide (DMSO) and incubated at 37.5° C. Media was changed every other day. Cells underwent growth arrest and subsequently died over a period of 48-96 hours (FIG. 8A; DP16-1 cells, ______, p53^tsneo transfected DP16-1 cells, - - -, and DP16-1 cells co-transfected with c-myb and p53^tsneo, _._._). Viable cells were isolated by centrifugation through Ficoll-paque (Pharmacia). […] This is in contrast to untransfected control DP16-1 cells which, when grown in media containing DMSO, downregulate c-myb mRNA and differentiate while remaining viable (FIG. 8A & 8B). […]"}, "[3]": {"test_system": "p53^tsneo/pMbm1-dhfr co-transfectants (DP16-1 MEL cells)", "test": "Viability of amplified p53^tsneo/pMbm1-dhfr co-transfectants in 1.6% DMSO", "format": "cell-based, mouse", "conditions": "amplified c-myb cultures", "text": "To determine how c-myb and p53 interact during MEL cell growth and differentiation, DP16-1 cells were co-transfected with p53^tsneo and pMbm1-dhfr, which encodes a full-length c-myb cDNA under the control of an SV40 promoter (Clarke, et al., supra). […] (FIG. 9A; panel c, C5a p53^tsneo/c-myb transfected DP16-1 cells; panel d, C5a cells). Instead, these cells proliferated for 2-3 days, and then arrested coincident with an increase in benzidine-positive cells (FIG. 11). Viability decreased only after the majority of cells had differentiated. Increased expression of c-myb was selected for by growing transfected cells in higher concentrations of methotrexate (Clarke et al., supra)."}, "p53^tsneo clones": {"test_system": "p53^tsneo clones", "test": "DMSO-induced differentiation of p53^tsneo clones, benzidine staining", "format": "cell-based, mouse", "conditions": "5 days exposure to 1.6% DMSO at 37.5° C., viable cells isolated through Ficoll-paque", "protocol": "To characterize the consequences of enforced expression of p53 on differentiation, logarithmically growing transfectants were exposed to media containing 1.6% dimethyl sulfoxide (DMSO) and incubated at 37.5° C. Media was changed every other day. Cells underwent growth arrest and subsequently died over a period of 48-96 hours (FIG. 8A; DP16-1 cells, ______, p53^tsneo transfected DP16-1 cells, - - -, and DP16-1 cells co-transfected with c-myb and p53^tsneo, _._._). Viable cells were isolated by centrifugation through Ficoll-paque (Pharmacia). […] This is in contrast to untransfected control DP16-1 cells which, when grown in media containing DMSO, downregulate c-myb mRNA and differentiate while remaining viable (FIG. 8A & 8B). As expected, the p53^ts protein was located in the cytoplasm of the cells growing at 37.5° C. in the absence of DMSO (FIG. 9A, panel a; C4 p53^tsneo DP16-1 cells). […] Thus despite the fact that the cells were grown at 37.5° C., DMSO caused the p53^ts to behave as wild-type p53 tumor suppressor and induced apoptotic cell death. MEL cells can also exit the cell cycle by being stimulated to terminally differentiate. DMSO was used to induce differentiation of p53^tsneo clones at 37.5° C. After 5 days exposure to 1.6% DMSO, viable cells were isolated by centrifugation through Ficoll-paque. […] These cells were placed at 32.5° C. and viability monitored. […]"}, "parental DP16-1 cells": {"test_system": "parental DP16-1 cells", "test": "DMSO-induced differentiation of parental DP16-1 cells, benzidine staining", "format": "cell-based, mouse", "conditions": "two days of exposure to medium containing DMSO", "text": "as §1"}, "[4]": {"test_system": "CML cells in bone marrow cell culture", "test": "Purging CML cells from low density mononuclear bone marrow cells with antisense myb", "format": "cell-based", "conditions": "40 μg/ml, culture changed two times a day for 1-to-three days, after MIP-1α 300 μg/ml for 24 hours", "text": "The most successful purging of bone marrow cells includes from one-to-three non-overlapping techniques. CML cells display antigens which are not present on the hematopoietic stem cells. A large majority of the CML cells that contaminant Marrow samples can initially be removed using antibodies that recognize these CML-specific antigens. Antibodies that can be used include specificities directed to one or more of the following antigens: CD15, CD33, Glycophorin A, CD10, CD2, CD4 and CD8. Antibody-cell conjugates can be removed by either flow cytometry, immuno-magnetic beads or compliment, for example. The remaining CML cells can be killed by incubating the enriched culture in the presence of c-myb antisense oligonucleotides.\nBriefly, mononuclear cells will be isolated from a 5 ml bone marrow aspirate by centrifuging through a ficol-hypaque density gradient. The isolated bone marrow cells (1×10^5 CD34+ progenitor cells) are then cultured in Dexter medium with IL3, SGF and EPO and macrophage inflammatory factor (MIP-1α; 300 μg/ml) for 24 hours and then are cultured in medium containing c-myb antisense oligonucleotides. MIP-1α arrests normal hematopoietic cells in G0 and these cells will therefore be resistant to c-myb antisense. The CML cells, however, are unresponsive to MIP-1α and will continue to cycle. […]"}, "[5]": {"test": "Viability of G1-arrested p53tsneo clones (mimosine growth arrest)", "format": "cell-based", "conditions": "mouse, clones C9, C2 and C1 (p53tsneo transfected DP16-1 MEL cells); mimosine 300 μM, late G1 arrest at 37.5° C., after 3-4 days of arrest", "protocol": "(§2) The relationship of p53 induced cell death to the cell cycle was studied in transfected clone C9. Clone C9 cells were synchronized in G0/G1 by density arrest (typically at a concentration of 1-2×10^6 cells/ml) for 48-72 hours at 37.5° C. Cells were stimulated to begin cycling by replating into fresh media at a 1:10 split ratio. Growth arrest with mimosine (Sigma) was accomplished by the addition of 300 μM mimosine to logarithmically growing cells for a period of 24 hours.\n(§3) To rule out that G1 arrest alone induces cell death, clones C9, C2 and C1 were growth arrested with either mimosine (300 μM) (Watson et al., Cytometry 12:242 (1991)) or isoleucine deprivation (Heintz et al., Proc. Natl. Acad. Sci. USA 79:4083 (1982)) at 37.5° C., both of which result in late Gi arrest."}, "[6]": {"test_system": "clones C9, C2 and C1 (p53^tsneo transfected DP16-1 MEL cells)", "test": "Viability of G1-arrested p53tsneo clones (mimosine growth arrest)", "format": "cell-based", "conditions": "mouse, 36 h, 300 μM", "protocol": "as §2, §3"}},
  "data": [
    {"compound": "C[S+](C)[O-]", "note": "[DMSO, dimethyl sulfoxide]", "values": [
      {"measurement": "Cells differentiated", "setting": "[1]", "result": "70-80%"},
      {"measurement": "Period over which cells died after growth arrest", "setting": "[2]", "result": "48 to 96", "unit": "h"},
      {"measurement": "Time to loss of viability", "setting": "[3]", "result": "10 to 14", "unit": "days"},
      {"measurement": "Benzidine positivity", "setting": "p53^tsneo clones", "result": "70-80%"},
      {"measurement": "Differentiation", "setting": "parental DP16-1 cells", "result": "remained largely undifferentiated"}
    ]},
    {"compound": "c-myb antisense: c-myb antisense oligonucleotide 5′-GTGCCGGGGTCTTCGGGC-3′ (chemistry not given here)", "values": [
      {"measurement": "Cells remaining viable in culture", "setting": "[4]", "result": "only the normal hematopoietic cells"}
    ]},
    {"compound": "NC(Cn1ccc(=O)c(O)c1)C(=O)O", "note": "(centres unmarked) [mimosine]", "values": [
      {"measurement": "viability at 300 μM", "setting": "[5]", "result": "~70", "unit": "%"},
      {"measurement": "Viability", "setting": "[6]", "result": "less than 5%"}
    ]}
  ]
}
